Source: ChEMBL document CHEMBL4507294, “Data for DCP probe MSD-CYP11B2” (2021)

Legend:
[1] = test system: Proto-oncogene tyrosine-protein kinase receptor Ret (Homo sapiens), P07949 [V804L]; conditions: Compound concentration 1000.0 nM
[2] = molecular target: Cyclin-dependent kinase 9 (Homo sapiens) (UniProt P50750); conditions: Compound concentration 1000.0 nM
[3] = molecular target: Cyclin-dependent kinase 11B (Homo sapiens) (UniProt P21127); conditions: Compound concentration 1000.0 nM
[4] = molecular target: Serine/threonine-protein kinase TAO3 (Homo sapiens) (UniProt Q9H2K8); conditions: Compound concentration 1000.0 nM
[5] = molecular target: Cyclin-dependent kinase-like 1 (Homo sapiens) (UniProt Q00532); conditions: Compound concentration 1000.0 nM
[6] = test system: Hepatocyte growth factor receptor (Homo sapiens), P08581 [Y1235D]; conditions: Compound concentration 1000.0 nM
[7] = molecular target: Activin receptor type-1-like (Homo sapiens) (UniProt P37023); conditions: Compound concentration 1000.0 nM
[8] = molecular target: Cyclin-dependent kinase 19 (Homo sapiens) (UniProt Q9BWU1); conditions: Compound concentration 1000.0 nM
[9] = molecular target: G protein-coupled receptor kinase 4 (Homo sapiens) (UniProt P32298); conditions: Compound concentration 1000.0 nM
[10] = test system: Mast/stem cell growth factor receptor Kit (Homo sapiens), P10721 [V559D,T670I]; conditions: Compound concentration 1000.0 nM
[11] = molecular target: Focal adhesion kinase 1 (Homo sapiens) (UniProt Q05397); conditions: Compound concentration 1000.0 nM
[12] = molecular target: Beta-1 adrenergic receptor (Homo sapiens, UniProt P08588); conditions: Compound concentration 10.0 uM
[13] = molecular target: Phosphatidylinositol 3-kinase C2 domain-containing subunit gamma (Homo sapiens) (UniProt O75747); conditions: Compound concentration 1000.0 nM
[14] = molecular target: Cyclin-dependent kinase 8 (Homo sapiens) (UniProt P49336); conditions: Compound concentration 1000.0 nM
[15] = molecular target: Phosphatidylinositol 4,5-bisphosphate 3-kinase catalytic subunit beta isoform (Homo sapiens) (UniProt P42338); conditions: Compound concentration 1000.0 nM
[16] = molecular target: Tyrosine-protein kinase SYK (Homo sapiens) (UniProt P43405); conditions: Compound concentration 1000.0 nM
[17] = test system: Tyrosine-protein kinase ABL1 (Homo sapiens), P00519 [Q252H]; conditions: Compound concentration 1000.0 nM
[18] = test system: Phosphatidylinositol 4,5-bisphosphate 3-kinase catalytic subunit alpha isoform (Homo sapiens), P42336 [E545A]; conditions: Compound concentration 1000.0 nM
[19] = molecular target: Vascular endothelial growth factor receptor 2 (Homo sapiens) (UniProt P35968); conditions: Compound concentration 1000.0 nM
[20] = test system: Epidermal growth factor receptor (Homo sapiens), P00533 [T790M]; conditions: Compound concentration 1000.0 nM
[21] = molecular target: RAC-alpha serine/threonine-protein kinase (Homo sapiens) (UniProt P31749); conditions: Compound concentration 1000.0 nM
[22] = molecular target: Mitogen-activated protein kinase 15 (Homo sapiens) (UniProt Q8TD08); conditions: Compound concentration 1000.0 nM
[23] = molecular target: Serine/threonine-protein kinase Nek3 (Homo sapiens) (UniProt P51956); conditions: Compound concentration 1000.0 nM
[24] = molecular target: Glycogen synthase kinase-3 alpha (Homo sapiens) (UniProt P49840); conditions: Compound concentration 1000.0 nM
[25] = molecular target: Homeodomain-interacting protein kinase 1 (Homo sapiens) (UniProt Q86Z02); conditions: Compound concentration 1000.0 nM
[26] = molecular target: T1, 5-hydroxytryptamine receptor 2C (Homo sapiens) (UniProt P28335); conditions: Compound concentration 10.0 uM
T1 sequence (whole entry): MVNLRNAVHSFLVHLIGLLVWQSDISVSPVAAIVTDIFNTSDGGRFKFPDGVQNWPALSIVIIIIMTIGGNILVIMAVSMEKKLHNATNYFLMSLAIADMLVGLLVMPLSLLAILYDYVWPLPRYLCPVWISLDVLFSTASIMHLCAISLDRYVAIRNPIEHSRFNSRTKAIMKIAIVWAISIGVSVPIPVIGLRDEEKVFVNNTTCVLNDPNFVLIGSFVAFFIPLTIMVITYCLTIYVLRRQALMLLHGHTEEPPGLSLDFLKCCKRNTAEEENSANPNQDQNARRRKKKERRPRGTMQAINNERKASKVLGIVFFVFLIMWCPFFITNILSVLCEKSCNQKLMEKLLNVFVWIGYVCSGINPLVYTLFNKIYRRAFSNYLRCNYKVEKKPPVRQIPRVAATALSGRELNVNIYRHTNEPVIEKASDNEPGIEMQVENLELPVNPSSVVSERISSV

[27] = molecular target: Cyclin-G-associated kinase (Homo sapiens) (UniProt O14976); conditions: Compound concentration 1000.0 nM
[28] = molecular target: Macrophage colony-stimulating factor 1 receptor (Homo sapiens) (UniProt P07333); conditions: Compound concentration 1000.0 nM
[29] = molecular target: Testis-specific serine/threonine-protein kinase 3 (Homo sapiens) (UniProt Q96PN8); conditions: Compound concentration 1000.0 nM
[30] = molecular target: LIM domain kinase 2 (Homo sapiens) (UniProt P53671); conditions: Compound concentration 1000.0 nM
[31] = molecular target: Interleukin-1 receptor-associated kinase 3 (Homo sapiens) (UniProt Q9Y616); conditions: Compound concentration 1000.0 nM
[32] = molecular target: Dual specificity mitogen-activated protein kinase kinase 7 (Homo sapiens) (UniProt O14733); conditions: Compound concentration 1000.0 nM
[33] = molecular target: MAP/microtubule affinity-regulating kinase 4 (Homo sapiens) (UniProt Q96L34); conditions: Compound concentration 1000.0 nM
[34] = molecular target: MAP kinase-activated protein kinase 2 (Homo sapiens) (UniProt P49137); conditions: Compound concentration 1000.0 nM
[35] = molecular target: Mitogen-activated protein kinase kinase kinase 7 (Homo sapiens) (UniProt O43318); conditions: Compound concentration 1000.0 nM
[36] = molecular target: Serine/threonine-protein kinase RIO1 (Homo sapiens) (UniProt Q9BRS2); conditions: Compound concentration 1000.0 nM
[37] = molecular target: RAC-beta serine/threonine-protein kinase (Homo sapiens) (UniProt P31751); conditions: Compound concentration 1000.0 nM
[38] = molecular target: 5-hydroxytryptamine receptor 2A (Homo sapiens) (UniProt P28223); conditions: Compound concentration 10.0 uM
[39] = molecular target: Cyclin-dependent kinase-like 5 (Homo sapiens) (UniProt O76039); conditions: Compound concentration 1000.0 nM

Chain of Cyclin-dependent kinase 19 (Homo sapiens) (Q9BWU1 whole entry): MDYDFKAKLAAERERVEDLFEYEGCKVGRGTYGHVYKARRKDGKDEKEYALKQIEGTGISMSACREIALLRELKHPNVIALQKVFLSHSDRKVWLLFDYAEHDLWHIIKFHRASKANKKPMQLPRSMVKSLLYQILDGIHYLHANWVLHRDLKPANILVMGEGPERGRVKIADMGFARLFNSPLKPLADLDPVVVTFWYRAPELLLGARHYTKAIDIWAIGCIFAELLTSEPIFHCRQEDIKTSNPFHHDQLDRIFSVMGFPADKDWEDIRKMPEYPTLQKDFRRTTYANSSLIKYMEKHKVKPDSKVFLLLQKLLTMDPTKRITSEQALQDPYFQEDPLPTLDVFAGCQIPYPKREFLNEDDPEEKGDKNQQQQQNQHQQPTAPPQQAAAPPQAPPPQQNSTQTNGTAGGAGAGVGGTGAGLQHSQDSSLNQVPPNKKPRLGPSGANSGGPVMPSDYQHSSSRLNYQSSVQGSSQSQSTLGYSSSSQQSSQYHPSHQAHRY
Chain of Serine/threonine-protein kinase RIO1 (Homo sapiens) (Q9BRS2 whole entry): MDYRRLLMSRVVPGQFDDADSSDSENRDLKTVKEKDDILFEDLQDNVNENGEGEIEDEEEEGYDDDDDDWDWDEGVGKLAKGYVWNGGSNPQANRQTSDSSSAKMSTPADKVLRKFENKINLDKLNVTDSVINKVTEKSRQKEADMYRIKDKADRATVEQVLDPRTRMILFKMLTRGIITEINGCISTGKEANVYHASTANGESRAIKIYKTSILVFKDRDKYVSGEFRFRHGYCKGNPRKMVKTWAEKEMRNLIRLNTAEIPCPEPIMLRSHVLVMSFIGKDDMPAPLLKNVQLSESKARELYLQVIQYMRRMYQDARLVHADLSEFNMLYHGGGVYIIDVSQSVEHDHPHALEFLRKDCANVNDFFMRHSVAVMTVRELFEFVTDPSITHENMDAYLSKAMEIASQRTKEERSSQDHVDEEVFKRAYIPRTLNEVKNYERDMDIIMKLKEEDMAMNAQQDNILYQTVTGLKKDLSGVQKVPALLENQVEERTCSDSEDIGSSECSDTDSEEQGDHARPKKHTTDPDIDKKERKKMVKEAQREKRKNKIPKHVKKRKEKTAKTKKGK
Chain of Proto-oncogene tyrosine-protein kinase receptor Ret (Homo sapiens), P07949 [V804L] (P07949 whole entry V804L): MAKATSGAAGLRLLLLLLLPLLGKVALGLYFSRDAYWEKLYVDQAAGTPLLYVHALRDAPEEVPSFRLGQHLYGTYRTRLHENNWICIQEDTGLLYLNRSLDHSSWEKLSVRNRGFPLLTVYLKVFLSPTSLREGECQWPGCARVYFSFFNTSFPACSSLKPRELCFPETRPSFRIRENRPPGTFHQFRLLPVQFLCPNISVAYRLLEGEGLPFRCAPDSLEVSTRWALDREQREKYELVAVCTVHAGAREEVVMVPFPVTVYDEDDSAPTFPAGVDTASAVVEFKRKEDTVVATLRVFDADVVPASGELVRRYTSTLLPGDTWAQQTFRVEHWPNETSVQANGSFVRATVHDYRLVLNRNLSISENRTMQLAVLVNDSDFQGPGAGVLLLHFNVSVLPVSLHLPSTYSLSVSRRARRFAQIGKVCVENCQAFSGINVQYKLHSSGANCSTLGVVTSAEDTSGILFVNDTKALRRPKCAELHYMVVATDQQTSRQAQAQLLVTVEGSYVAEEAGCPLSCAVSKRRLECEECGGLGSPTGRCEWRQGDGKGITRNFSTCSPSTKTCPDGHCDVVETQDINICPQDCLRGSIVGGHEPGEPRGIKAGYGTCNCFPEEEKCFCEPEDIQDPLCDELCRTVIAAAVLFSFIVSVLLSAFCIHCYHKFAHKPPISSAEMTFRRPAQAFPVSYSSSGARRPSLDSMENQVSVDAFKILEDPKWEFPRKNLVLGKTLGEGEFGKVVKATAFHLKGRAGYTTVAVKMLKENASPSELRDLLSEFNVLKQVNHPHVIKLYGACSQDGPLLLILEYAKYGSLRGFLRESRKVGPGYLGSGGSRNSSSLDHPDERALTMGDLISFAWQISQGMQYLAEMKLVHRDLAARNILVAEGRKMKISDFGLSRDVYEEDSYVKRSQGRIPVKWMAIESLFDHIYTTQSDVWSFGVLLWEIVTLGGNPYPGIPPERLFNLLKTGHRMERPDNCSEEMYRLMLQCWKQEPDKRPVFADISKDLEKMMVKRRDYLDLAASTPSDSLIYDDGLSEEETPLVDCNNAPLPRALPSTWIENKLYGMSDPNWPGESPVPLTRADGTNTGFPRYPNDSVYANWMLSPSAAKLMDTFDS
Chain of Beta-1 adrenergic receptor (P08588 whole entry, looked up, the tested form may be a part): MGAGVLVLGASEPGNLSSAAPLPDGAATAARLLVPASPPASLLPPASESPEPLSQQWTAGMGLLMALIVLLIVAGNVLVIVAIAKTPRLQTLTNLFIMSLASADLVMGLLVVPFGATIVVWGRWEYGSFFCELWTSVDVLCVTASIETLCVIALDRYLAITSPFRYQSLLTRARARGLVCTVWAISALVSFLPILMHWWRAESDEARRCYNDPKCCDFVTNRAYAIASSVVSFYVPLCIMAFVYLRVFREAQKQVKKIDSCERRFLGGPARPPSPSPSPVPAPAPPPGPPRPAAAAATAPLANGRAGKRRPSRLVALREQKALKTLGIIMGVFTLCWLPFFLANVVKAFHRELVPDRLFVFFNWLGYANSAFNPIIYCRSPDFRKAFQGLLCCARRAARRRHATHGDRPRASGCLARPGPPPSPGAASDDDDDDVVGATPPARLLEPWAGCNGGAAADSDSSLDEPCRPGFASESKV
Chain of Cyclin-dependent kinase 11B (Homo sapiens) (P21127 whole entry): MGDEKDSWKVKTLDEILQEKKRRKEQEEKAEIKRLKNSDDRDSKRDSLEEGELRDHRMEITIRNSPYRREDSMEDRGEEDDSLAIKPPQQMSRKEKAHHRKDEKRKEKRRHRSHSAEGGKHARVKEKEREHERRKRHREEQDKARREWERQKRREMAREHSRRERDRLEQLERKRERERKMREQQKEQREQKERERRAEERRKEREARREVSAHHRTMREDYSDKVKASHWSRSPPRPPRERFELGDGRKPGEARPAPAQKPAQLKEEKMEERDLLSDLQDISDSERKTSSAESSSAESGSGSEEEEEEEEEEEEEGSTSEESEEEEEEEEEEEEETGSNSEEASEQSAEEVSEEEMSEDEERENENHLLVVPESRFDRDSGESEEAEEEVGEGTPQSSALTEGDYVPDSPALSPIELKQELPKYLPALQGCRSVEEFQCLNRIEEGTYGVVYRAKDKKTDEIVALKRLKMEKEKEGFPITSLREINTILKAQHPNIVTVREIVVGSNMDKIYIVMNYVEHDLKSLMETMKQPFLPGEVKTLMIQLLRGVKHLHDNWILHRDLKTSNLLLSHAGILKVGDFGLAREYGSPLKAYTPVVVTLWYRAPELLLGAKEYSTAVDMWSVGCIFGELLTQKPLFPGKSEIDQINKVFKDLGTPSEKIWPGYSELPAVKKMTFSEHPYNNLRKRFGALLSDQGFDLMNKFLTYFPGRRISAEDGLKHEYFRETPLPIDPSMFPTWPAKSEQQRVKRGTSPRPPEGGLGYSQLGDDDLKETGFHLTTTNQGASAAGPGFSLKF
Chain of G protein-coupled receptor kinase 4 (Homo sapiens) (P32298 whole entry, looked up): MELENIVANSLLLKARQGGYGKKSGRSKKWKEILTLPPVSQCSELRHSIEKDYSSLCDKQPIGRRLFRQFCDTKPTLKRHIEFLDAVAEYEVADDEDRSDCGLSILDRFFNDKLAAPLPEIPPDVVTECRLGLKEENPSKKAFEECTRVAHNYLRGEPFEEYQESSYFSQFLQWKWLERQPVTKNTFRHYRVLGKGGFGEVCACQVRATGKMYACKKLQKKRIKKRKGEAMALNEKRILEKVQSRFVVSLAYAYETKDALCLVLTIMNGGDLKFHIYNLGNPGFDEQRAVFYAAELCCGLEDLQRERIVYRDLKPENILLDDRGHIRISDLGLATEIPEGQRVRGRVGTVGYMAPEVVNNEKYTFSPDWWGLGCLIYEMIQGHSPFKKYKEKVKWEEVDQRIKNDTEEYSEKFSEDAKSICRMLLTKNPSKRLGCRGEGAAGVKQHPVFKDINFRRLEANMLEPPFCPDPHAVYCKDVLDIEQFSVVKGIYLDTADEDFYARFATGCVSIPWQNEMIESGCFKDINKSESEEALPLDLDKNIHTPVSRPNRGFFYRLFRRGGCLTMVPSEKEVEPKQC
Chain of MAP kinase-activated protein kinase 2 (Homo sapiens) (P49137 whole entry, looked up): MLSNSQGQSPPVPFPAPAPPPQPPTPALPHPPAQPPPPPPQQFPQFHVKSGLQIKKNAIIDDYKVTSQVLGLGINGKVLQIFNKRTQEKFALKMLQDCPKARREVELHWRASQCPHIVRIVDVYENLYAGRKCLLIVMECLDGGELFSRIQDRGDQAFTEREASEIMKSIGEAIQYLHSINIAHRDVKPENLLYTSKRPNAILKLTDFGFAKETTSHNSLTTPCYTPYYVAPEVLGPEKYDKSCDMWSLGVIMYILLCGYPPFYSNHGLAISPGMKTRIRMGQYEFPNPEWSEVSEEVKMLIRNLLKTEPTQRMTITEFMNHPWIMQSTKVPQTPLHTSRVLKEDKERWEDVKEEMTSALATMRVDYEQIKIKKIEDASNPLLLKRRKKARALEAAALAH
Chain of Dual specificity mitogen-activated protein kinase kinase 7 (Homo sapiens) (O14733 whole entry): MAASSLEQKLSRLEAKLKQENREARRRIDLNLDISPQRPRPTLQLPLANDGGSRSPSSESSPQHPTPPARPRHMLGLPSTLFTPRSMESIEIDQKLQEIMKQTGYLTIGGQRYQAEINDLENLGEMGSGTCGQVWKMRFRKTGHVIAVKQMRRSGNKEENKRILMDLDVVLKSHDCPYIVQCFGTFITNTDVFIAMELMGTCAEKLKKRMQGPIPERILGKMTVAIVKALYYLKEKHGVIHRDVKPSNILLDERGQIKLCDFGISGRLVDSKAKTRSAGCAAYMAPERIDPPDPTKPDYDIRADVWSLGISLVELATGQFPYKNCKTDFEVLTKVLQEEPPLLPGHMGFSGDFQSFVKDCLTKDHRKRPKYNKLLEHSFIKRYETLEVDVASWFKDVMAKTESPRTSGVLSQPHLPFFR

SMILES	residual activity [1]	residual activity [2]	residual activity [3]	residual activity [4]	residual activity [5]	residual activity [6]	residual activity [7]	residual activity [8]	residual activity [9]	residual activity [10]	residual activity [11]	inhibition [12]	residual activity [13]	residual activity [14]	residual activity [15]	residual activity [16]	residual activity [17]	residual activity [18]	residual activity [19]	residual activity [20]	also measured
FC(F)(F)c1ccc2c(c1)nc(-c1cccnc1)n2C1CC1 [MSD-CYP11B2-Negative-control]	81%	100%	100%	100%	91%	100%	100%	100%	100%	100%	100%	13.4%	100%	100%	97%	100%	100%	90%	100%	87%	residual activity [21]: 100%; residual activity [22]: 100%; residual activity [23]: 88%; residual activity [24]: 100%; residual activity [25]: 100%; inhibition [26]: 30.8%; residual activity [27]: 100%; residual activity [28]: 89%; residual activity [29]: 65%; residual activity [30]: 100%; residual activity [31]: 100%; residual activity [32]: 100%; residual activity [33]: 100%; residual activity [34]: 100%; residual activity [35]: 100%; residual activity [36]: 100%; residual activity [37]: 100%; inhibition [38]: 4.15%; residual activity [39]: 91%
CC(C)(O)c1cncc(-c2nc3ccc(F)cc3n2C2CC2)c1 [MSD-CYP11B2]	100%	100%	100%	100%	100%	100%	100%	94%	100%	100%	100%	59.4%	100%	95%	81%	100%	100%	90%	100%	90%	residual activity [21]: 100%; residual activity [22]: 90%; residual activity [23]: 100%; residual activity [24]: 100%; residual activity [25]: 97%; inhibition [26]: 100%; residual activity [27]: 100%; residual activity [28]: 100%; residual activity [29]: 84%; residual activity [30]: 100%; residual activity [31]: 100%; residual activity [32]: 100%; residual activity [33]: 100%; residual activity [34]: 100%; residual activity [35]: 100%; residual activity [36]: 100%; residual activity [37]: 84%; inhibition [38]: -0.31%; residual activity [39]: 100%
